Peptide text beside a SMILES is read from it. * marks the point of attachment. Dansyl = CN(C)c1cccc2c(S(=O)(=O)*)cccc12

Here are results for 33 compounds from patent US6960574B2, “Antagonists of RF-amide neuropeptides” (University of Florida, priority 2002, dated 2005).

In this assay the test system is receptor labeled by the radioiodinated analogue of 1 (4, [125I]-YLFQPQRF-NH2); neuropeptide FF receptor. In words: Competitive radioligand binding against 4 ([125I]Y8F-amide). Particulars: mixture-based positional scanning; difference from averaged radioligand displacement of whole library (0); about 80 a.u. = 10-fold change in Ki. From the text:
Additionally, three-dimensional (3-D) molecular models of the known smaller-size neuropeptide FF antagonists 3 and 3a were constructed and their low-energy conformations were obtained in the AMBER force-field [Weiner, et al., J. Comput. Chem. 1986, 7, […].] by molecular dynamics calculations involving simulated annealing. A semi-empirical quantum chemical method with the PM3 parameterization [Stewart, J. Comput. Chem. 1989, 10, 209-220.] was used for the final geometry optimization. […] At least one of the rings in domain B is aromatic. No similarity between 3 and 3a outside these domains were apparent; therefore, the simultaneous presence of A and B domains in the structure of neuropeptide FF (1) antagonists is critical to the invention. Apparently, structural subunits (domain C) outside domains A and B should function in a cooperative manner in directing the pharmacophores into proper geometric positions when improved binding to the cognate receptor is to be obtained, which is associated with the improvement of the desired pharmacological effect. An approach involving mixture-based synthetic combinatorial libraries and positional scanning [(a) Houghten, et al., J. Med Chem. 1999, 42, 3743-3778.] was adopted in the search for preferred structural motifs in domain C that assist in achieving this objective in this invention. To allow for the use of 3 as a reference in this process, the guadinino group (A) was incorporated as part of an L-2-amino-5-{[amino(imino)methyl]amino}pentanoyl (arginyl, R, Arg) residue and 5-dimethylamino-1-naphthalenesulphonyl (dansyl) was chosen to form B (However, it must be emphasized that both R and dansyl are replaceable with moieties that bestow A and B domain attributes described in the invention).
Upon screening for residues to replace the glutamine of 3, serine (S) was the only building block in this position that increased the displacement of 4 in the radioligand-binding assay. Therefore, motifs present in dansyl-Gly-Ser-Arg-NH2, dansyl-Gly-Gln-Arg-NH2, dansyl-Gln-Ser-Arg-NH2, and dansyl-Gln-Gln-Arg-NH2 were chosen based on their affinity to the cognate receptor for further consideration as primary templates when designing the domain C of the compounds described in the invention herein. […]
Background: Displacement assays read how much labelled ligand stays bound in the presence of the test substance.
`CN(C)c1cccc2c(S(=O)(=O)N[C@@H](CO)C(=O)N3CCC[C@H]3C(=O)N[C@@H](CCCNC(=N)N)C(N)=O)cccc12` [Dansyl-SPR-amide] (Dansyl-Ser-Pro-Arg-NH2): the “Relative Binding Index (RBI)” value turned out to be 20 a.u.

In the case of `CN(C)c1cccc2c(S(=O)(=O)N[C@@H](Cc3ccc(O)cc3)C(=O)N[C@@H](Cc3ccc(O)cc3)C(=O)N[C@@H](CCCNC(=N)N)C(N)=O)cccc12` [Dansyl-YYR-amide] (Dansyl-Tyr-Tyr-Arg-NH2), the “Relative Binding Index (RBI)” value came to 6 a.u.

Turning to `CN(C)c1cccc2c(S(=O)(=O)N[C@@H](CO)C(=O)N[C@@H](Cc3ccccc3)C(=O)N[C@@H](CCCNC(=N)N)C(N)=O)cccc12` [Dansyl-SFR-amide] (Dansyl-Ser-Phe-Arg-NH2), the “Relative Binding Index (RBI)” value is 15 a.u.

Regarding `CN(C)c1cccc2c(S(=O)(=O)N3CCC[C@H]3C(=O)NCC(=O)N[C@@H](CCCNC(=N)N)C(N)=O)cccc12` [Dansyl-PGR-amide] (Dansyl-Pro-Gly-Arg-NH2), the “Relative Binding Index (RBI)” value was −43 a.u.

Turning to `CC(C)C[C@H](NS(=O)(=O)c1cccc2c(N(C)C)cccc12)C(=O)N[C@@H](CO)C(=O)N[C@@H](CCCNC(=N)N)C(N)=O` [Dansyl-LSR-amide] (Dansyl-Leu-Ser-Arg-NH2), the “Relative Binding Index (RBI)” value is given as −11 a.u.

With `CC[C@H](C)[C@H](NC(=O)[C@H](CC(N)=O)NS(=O)(=O)c1cccc2c(N(C)C)cccc12)C(=O)N[C@@H](CCCNC(=N)N)C(N)=O` [Dansyl-NIR-amide] (Dansyl-Asn-Ile-Arg-NH2), the “Relative Binding Index (RBI)” value is on record as 19 a.u.

Regarding `CSCC[C@H](NC(=O)[C@@H]1CCCN1S(=O)(=O)c1cccc2c(N(C)C)cccc12)C(=O)N[C@@H](CCCNC(=N)N)C(N)=O` [Dansyl-PMR-amide] (Dansyl-Pro-Met-Arg-NH2), the “Relative Binding Index (RBI)” value is recorded as −48 a.u.

Turning to `CC(C)C[C@H](NC(=O)[C@H](CCCNC(=N)N)NS(=O)(=O)c1cccc2c(N(C)C)cccc12)C(=O)N[C@@H](CCCNC(=N)N)C(N)=O` [Dansyl-RLR-amide], the “Relative Binding Index (RBI)” value was −2 a.u.

With `CSCC[C@H](NS(=O)(=O)c1cccc2c(N(C)C)cccc12)C(=O)N[C@@H](Cc1ccc(O)cc1)C(=O)N[C@@H](CCCNC(=N)N)C(N)=O` [Dansyl-MYR-amide] (Dansyl-Met-Tyr-Arg-NH2), the “Relative Binding Index (RBI)” value was −45 a.u.

On to `CN(C)c1cccc2c(S(=O)(=O)N[C@@H](CCC(=O)O)C(=O)N[C@@H](CC(N)=O)C(=O)N[C@@H](CCCNC(=N)N)C(N)=O)cccc12` [Dansyl-ENR-amide] (Dansyl-Glu-Asn-Arg-NH2), for which the “Relative Binding Index (RBI)” value is recorded as 18 a.u.

With `CN(C)c1cccc2c(S(=O)(=O)N[C@@H](CCC(=O)O)C(=O)N[C@@H](Cc3c[nH]c4ccccc34)C(=O)N[C@@H](CCCNC(=N)N)C(N)=O)cccc12` [Dansyl-EWR-amide] (Dansyl-Glu-Trp-Arg-NH2), the “Relative Binding Index (RBI)” value is recorded as 25 a.u.

Consider `CC[C@H](C)[C@H](NS(=O)(=O)c1cccc2c(N(C)C)cccc12)C(=O)N[C@@H](CCSC)C(=O)N[C@@H](CCCNC(=N)N)C(N)=O` [Dansyl-IMR-amide] (Dansyl-Ile-Met-Arg-NH2), for which the “Relative Binding Index (RBI)” value is reported as −11 a.u.

Consider `CC[C@H](C)[C@H](NC(=O)[C@H](CC(=O)O)NS(=O)(=O)c1cccc2c(N(C)C)cccc12)C(=O)N[C@@H](CCCNC(=N)N)C(N)=O` [Dansyl-DIR-amide] (Dansyl-Asp-Ile-Arg-NH2), for which the “Relative Binding Index (RBI)” value amounted to 1 a.u.

On to `CN(C)c1cccc2c(S(=O)(=O)N[C@@H](Cc3c[nH]c4ccccc34)C(=O)N[C@@H](CO)C(=O)N[C@@H](CCCNC(=N)N)C(N)=O)cccc12` [Dansyl-WSR-amide] (Dansyl-Trp-Ser-Arg-NH2), for which the “Relative Binding Index (RBI)” value was 29 a.u.

Take `CN(C)c1cccc2c(S(=O)(=O)N[C@@H](CO)C(=O)NCC(=O)N[C@@H](CCCNC(=N)N)C(N)=O)cccc12` [Dansyl-SGR-amide] (Dansyl-Ser-Gly-Arg-NH2): the “Relative Binding Index (RBI)” value amounted to 22 a.u.

On to `CN(C)c1cccc2c(S(=O)(=O)N[C@@H](Cc3ccc(O)cc3)C(=O)N[C@@H](CC(N)=O)C(=O)N[C@@H](CCCNC(=N)N)C(N)=O)cccc12` [Dansyl-YNR-amide] (Dansyl-Tyr-Asn-Arg-NH2), for which the “Relative Binding Index (RBI)” value is listed as 8 a.u.

Turning to `CN(C)c1cccc2c(S(=O)(=O)N[C@@H](CCCNC(=N)N)C(=O)N3CCC[C@H]3C(=O)N[C@@H](CCCNC(=N)N)C(N)=O)cccc12` [Dansyl-RPR-amide] (Dansyl-Arg-Pro-Arg-NH2), the “Relative Binding Index (RBI)” value is given as 10 a.u.

`CN(C)c1cccc2c(S(=O)(=O)NCC(=O)N[C@@H](CCC(N)=O)C(=O)N[C@@H](CCCNC(=N)N)C(N)=O)cccc12` [Dansyl-GQR-amide, dansyl-Gly-Gln-Arg-NH2] (Dansyl-Gly-Gln-Arg-NH2): the “Relative Binding Index (RBI)” value is listed as 39 a.u.

As for `C[C@@H](O)[C@H](NS(=O)(=O)c1cccc2c(N(C)C)cccc12)C(=O)NCC(=O)N[C@@H](CCCNC(=N)N)C(N)=O` [Dansyl-TGR-amide] (Dansyl-Thr-Gly-Arg-NH2), the “Relative Binding Index (RBI)” value is reported as −3 a.u.

On to `CC(C)C[C@H](NS(=O)(=O)c1cccc2c(N(C)C)cccc12)C(=O)N[C@@H](CC(N)=O)C(=O)N[C@@H](CCCNC(=N)N)C(N)=O` [Dansyl-LNR-amide] (Dansyl-Leu-Asn-Arg-NH2), for which the “Relative Binding Index (RBI)” value is given as −31 a.u.

Turning to `CC(C)[C@H](NS(=O)(=O)c1cccc2c(N(C)C)cccc12)C(=O)N[C@@H](CCCNC(=N)N)C(=O)N[C@@H](CCCNC(=N)N)C(N)=O` [Dansyl-VRR-amide] (Dansyl-Val-Arg-Arg-NH2), the “Relative Binding Index (RBI)” value was −6 a.u.

In the case of `CC(C)[C@H](NC(=O)[C@H](C)NS(=O)(=O)c1cccc2c(N(C)C)cccc12)C(=O)N[C@@H](CCCNC(=N)N)C(N)=O` [Dansyl-AVR-amide] (Dansyl-Ala-Val-Arg-NH2), the “Relative Binding Index (RBI)” value came out at 7 a.u.

As to `CN(C)c1cccc2c(S(=O)(=O)N[C@@H](Cc3cnc[nH]3)C(=O)N[C@@H](CCCNC(=N)N)C(=O)N[C@@H](CCCNC(=N)N)C(N)=O)cccc12` [Dansyl-HRR-amide] (Dansyl-His-Arg-Arg-NH2), the “Relative Binding Index (RBI)” value is reported as 15 a.u.

On to `CN(C)c1cccc2c(S(=O)(=O)N[C@@H](CO)C(=O)N[C@@H](Cc3c[nH]c4ccccc34)C(=O)N[C@@H](CCCNC(=N)N)C(N)=O)cccc12` [Dansyl-SWR-amide] (Dansyl-Ser-Trp-Arg-NH2), for which the “Relative Binding Index (RBI)” value came to 25 a.u.

As to `CC[C@H](C)[C@H](NS(=O)(=O)c1cccc2c(N(C)C)cccc12)C(=O)N[C@@H](Cc1ccc(O)cc1)C(=O)N[C@@H](CCCNC(=N)N)C(N)=O` [Dansyl-IYR-amide] (Dansyl-Ile-Tyr-Arg-NH2), the “Relative Binding Index (RBI)” value is −12 a.u.

With `C[C@@H](O)[C@H](NC(=O)[C@H](Cc1cnc[nH]1)NS(=O)(=O)c1cccc2c(N(C)C)cccc12)C(=O)N[C@@H](CCCNC(=N)N)C(N)=O` [Dansyl-HTR-amide] (Dansyl-His-Thr-Arg-NH2), the “Relative Binding Index (RBI)” value came out at 22 a.u.

Consider `CN(C)c1cccc2c(S(=O)(=O)N[C@@H](CC(N)=O)C(=O)N[C@@H](CCC(N)=O)C(=O)N[C@@H](CCCNC(=N)N)C(N)=O)cccc12` [Dansyl-NQR-amide] (Dansyl-Asn-Gln-Arg-NH2), for which the “Relative Binding Index (RBI)” value is given as 26 a.u.

Consider `CC(C)[C@H](NC(=O)[C@H](Cc1ccccc1)NS(=O)(=O)c1cccc2c(N(C)C)cccc12)C(=O)N[C@@H](CCCNC(=N)N)C(N)=O` [Dansyl-FVR-amide] (Dansyl-Phe-Val-Arg-NH2), for which the “Relative Binding Index (RBI)” value turned out to be 5 a.u.

Take `C[C@H](NC(=O)[C@@H]1CCCN1S(=O)(=O)c1cccc2c(N(C)C)cccc12)C(=O)N[C@@H](CCCNC(=N)N)C(N)=O` [Dansyl-PAR-amide] (Dansyl-Pro-Ala-Arg-NH2): the “Relative Binding Index (RBI)” value is listed as −97 a.u.

`CSCC[C@H](NC(=O)[C@H](Cc1cnc[nH]1)NS(=O)(=O)c1cccc2c(N(C)C)cccc12)C(=O)N[C@@H](CCCNC(=N)N)C(N)=O` [Dansyl-HMR-amide] (Dansyl-His-Met-Arg-NH2): the “Relative Binding Index (RBI)” value came to 17 a.u.

In the case of `CC(C)C[C@H](NC(=O)[C@H](Cc1ccc(O)cc1)NS(=O)(=O)c1cccc2c(N(C)C)cccc12)C(=O)N[C@@H](CCCNC(=N)N)C(N)=O` [Dansyl-YLR-amide] (Dansyl-Tyr-Leu-Arg-NH2), the “Relative Binding Index (RBI)” value is given as −1 a.u.

As to `CN(C)c1cccc2c(S(=O)(=O)N[C@@H](CCCCN)C(=O)N[C@@H](CC(=O)O)C(=O)N[C@@H](CCCNC(=N)N)C(N)=O)cccc12` [Dansyl-KDR-amide] (Dansyl-Lys-Asp-Arg-NH2), the “Relative Binding Index (RBI)” value is given as 7 a.u.

On to `CC(C)C[C@H](NC(=O)[C@@H](NS(=O)(=O)c1cccc2c(N(C)C)cccc12)C(C)C)C(=O)N[C@@H](CCCNC(=N)N)C(N)=O` [Dansyl-VLR-amide] (Dansyl-Val-Leu-Arg-NH2), for which the “Relative Binding Index (RBI)” value is listed as −13 a.u.
